Experimental data from patent publication US12194080B2, “Methods for identification, assessment, prevention, and treatment of metabolic disorders using PM20D1 and N-lipidated amino acids” (Dana-Farber Cancer Institute, Inc., priority 2015, dated 2025).

What was measured:
[1] = tested on: primary inguinal fat cells, primary BAT cells, C2C12 cells, and U2OS cells; test: Uncoupled respiration cellular assays (variety of cell types); assay type: cell-based; conditions: N-acyl amino acids at 10-100 uM
[2] = tested on: primary BAT adipocytes from UCP1-KO mice; test: Cellular oxygen consumption rate, primary BAT adipocytes from UCP1-KO mice; assay type: cell-based, mouse; conditions: UCP1-KO cells, 50 μM
Description: (§1) C2C12, U2O5, and 293A cells were cultured in DMEM with 10% FBS and pen/strep. Primary inguinal (iWAT) and brown (BAT) adipocytes were obtained as follows. The stromal-vascular fraction of inguinal (iWAT) pad from 4-12 week old male mice was dissected, minced, and digested for 45 min. at 37° C. in PBS containing 10 mM CaCl2, 2.4 U/ml dispase II (Roche), and 1.5 U/ml collagenase D (Roche). The stromal-vascular fraction of brown fat (BAT) pads from newborn (P1-P14) pups was dissected, minced, and digested for 45 min at 37° C. in PBS containing 1.3 mM CaCl2, 120 mM NaCl, 5 mM KCl, 5 mM glucose, 100 mM HEPES, 4% BSA, and 1.5 mg/ml collagenase B (Roche). […]
(§2) Cellular oxygen consumption rates were determined using an XF24 Extracellular Flux Analyzer (Seahorse Biosciences). […] C2C12 or U2OS cells were seeded at 30,000 or 50,000 cells/well, respectively in an XF24 cell culture microplate (V7-PS, Seahorse Bioscience) and analyzed the following day. Primary iWAT or BAT adipocytes were seeded at 15,000 cells/well, differentiation was induced the following day as described, and the cells were analyzed on day 5. […] For data expressed as a percentage of oligomycin-treated basal, the respiration at cycle 6 was normalized to 100%, and the maximum respiration at any time point between cycles 7 and 15 inclusive was used.

[3] = tested on: differentiated primary iWAT cells; test: Cellular oxygen consumption rate (Seahorse XF24), differentiated primary iWAT adipocytes; assay type: cell-based, mouse; conditions: 50 μM, in presence of oligomycin (1 μM)
Description: (§3) C2C12, U2O5, and 293A cells were cultured in DMEM with 10% FBS and pen/strep. Primary inguinal (iWAT) and brown (BAT) adipocytes were obtained as follows. The stromal-vascular fraction of inguinal (iWAT) pad from 4-12 week old male mice was dissected, minced, and digested for 45 min. at 37° C. in PBS containing 10 mM CaCl2, 2.4 U/ml dispase II (Roche), and 1.5 U/ml collagenase D (Roche). The stromal-vascular fraction of brown fat (BAT) pads from newborn (P1-P14) pups was dissected, minced, and digested for 45 min at 37° C. in PBS containing 1.3 mM CaCl2, 120 mM NaCl, 5 mM KCl, 5 mM glucose, 100 mM HEPES, 4% BSA, and 1.5 mg/ml collagenase B (Roche). Digested tissue was diluted with adipocyte culture media (DMEM/F-12, GlutaMAX™ supplement, Life Technologies, with 10% FBS and pen/strep) and centrifuged (600×g for 10 min.). The pellet was resuspended in 10 ml adipocyte culture media, strained through a 40 μm filter, and plated. Differentiation was induced by application of an adipogenic cocktail containing 5 μg/ml insulin (Sigma), 5 μM dexamethasone (Sigma), 250 μM isobutylmethylxanthine (Sigma), and 1 μM rosiglitazone (Cayman) for 2 days. Two days after induction, cells were maintained in adipocyte culture media containing 5 μg/ml insulin and 1 μM rosiglitazone.
(§4) Cellular oxygen consumption rates were determined using an XF24 Extracellular Flux Analyzer (Seahorse Biosciences). Oligomycin was purchased from EMD Millipore, and FCCP and rotenone were purchased from Sigma. C2C12 or U2OS cells were seeded at 30,000 or 50,000 cells/well, respectively in an XF24 cell culture microplate (V7-PS, Seahorse Bioscience) and analyzed the following day. Primary iWAT or BAT adipocytes were seeded at 15,000 cells/well, differentiation was induced the following day as described, and the cells were analyzed on day 5. On the day of analysis, the cells were washed once with Seahorse respiration buffer (8.3 g/1 DMEM, 1.8 g/l NaCl, 1 mM pyruvate, 20 mM glucose, pen/strep), placed in 0.5 ml Seahorse respiration buffer, and incubated in a CO2-free incubator for 1 hr. Port injection solutions were prepared as follows (final concentrations in assay in parentheses): 10 μM oligomycin (1 μM final), […] amino acid (50 μM final), 2 μM FCCP (0.2 μM final), and 30 μM rotenone (3 μM final). The Seahorse program was run as follows: basal measurement, 3 cycles; inject port A (oligomycin), 3 cycles; inject port B (compounds), 8 cycles; inject port C (FCCP), 3 cycles; inject port D (rotenone), 3 cycles. Each cycle consisted of mix 4 min, wait 0 min, and measure 2 min. For data expressed as a percentage of oligomycin-treated basal, the respiration at cycle 6 was normalized to 100%, and the maximum respiration at any time point between cycles 7 and 15 inclusive was used.

[4] = tested on: primary BAT adipocytes from UCP1-WT mice; test: Cellular oxygen consumption rate, primary BAT adipocytes from UCP1-WT mice; assay type: cell-based, mouse; conditions: UCP1-WT cells, 50 μM
Description: as §1, §2

[5] = tested on: C2C12 cells; test: Cellular oxygen consumption rate (uncoupled respiration), C2C12 cells; assay type: cell-based, mouse; conditions: 50 μM, after oligomycin 1 μM
Description: as §3, §4

[6] = tested on: proteins in C2C12 cells; test: UV crosslinking with photo-probe and identification of N-acyl amino acid protein targets (TAMRA in-gel fluorescence, LC-MS/MS); assay type: binding, mouse; conditions: photo-probe 50 μM, 20 min, UV irradiation 10 min
Description: Confluent 6-cm plates of C2C12 cells were washed twice with PBS and then treated with photo-probe (20 μM) with or without competitor (C20:4-Phe, 100 μM) in serum free media at 37° C. for 20 min. The media was aspirated. Cells were then placed on ice and UV-irradiated (10 min, UV Stratalinker 2400). Control samples were left on ice under ambient light.
Following UV irradiation, cells were then scraped, centrifuged (5 min, 1,400×g), washed once with cold PBS, and centrifuged again (5 min, 1,400×g). The cell pellets were resuspended in 0.3 ml PBS and sonicated. Click chemistry was performed as follows: To 50 μl cell lysate at 1 mg/ml was added 3 μl TBTA (stock solution: 1.7 mM in 4:1 v/v DMSO:t-BuOH), 1 ul CuSO4 (stock solution: 50 mM in water), 1 ul TCEP (freshly prepared, stock solution: 50 mM), and 1 ul TAMRA-N3 (stock solution: 1.25 mM in DMSO). Reactions were incubated at room temperature for 1 h, and then quenched with 4× SDS loading buffer (17 ul). In-gel TAMRA fluorescence was visualized on a Typhoon™ FLA 9000 scanner (GE Healthcare Life Sciences).

[7] = target: T1, human PM20D1 (Homo sapiens, UniProt Q6GTS8); test: In vitro N-acyl amino acid synthase activity of human PM20D1; assay type: biochemical; conditions: purified human PM20D1-flag, oleate 1.5 mM, head group 100 μM
T1 construct: host or cells: 293A cells, transient transfection; purified from conditioned medium
T1 sequence (Q6GTS8 26-502): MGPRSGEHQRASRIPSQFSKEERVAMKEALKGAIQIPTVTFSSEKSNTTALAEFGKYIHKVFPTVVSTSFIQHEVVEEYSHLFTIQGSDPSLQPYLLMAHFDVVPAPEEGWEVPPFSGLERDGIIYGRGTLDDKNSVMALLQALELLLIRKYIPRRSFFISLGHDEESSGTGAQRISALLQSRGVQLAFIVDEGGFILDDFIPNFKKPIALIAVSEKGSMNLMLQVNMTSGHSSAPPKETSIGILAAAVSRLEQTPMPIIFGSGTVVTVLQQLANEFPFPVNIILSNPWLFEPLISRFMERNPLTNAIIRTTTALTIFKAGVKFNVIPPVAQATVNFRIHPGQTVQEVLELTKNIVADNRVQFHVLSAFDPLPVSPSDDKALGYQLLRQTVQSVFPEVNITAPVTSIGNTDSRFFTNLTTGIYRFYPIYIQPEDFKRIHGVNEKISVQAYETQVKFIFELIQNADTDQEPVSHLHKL
Description: (§5) The concentrated media was centrifuged to remove debris (600×g, 10 min, 4° C.) and the supernatant containing PM20D1-flag was decanted into a new tube. PM20D1-Flag was immunoaffinity purified overnight at 4° C. from the concentrated media using magnetic Flag-M2 beads (Sigma Aldrich). The beads were collected, washed three times in PBS, eluted with 3× Flag peptide ([…] in PBS, Sigma Aldrich), aliquoted, and stored at −80° C. For the purification of human PM20D1-flag, hPM20D1-flag plasmid (Origene) was transiently transfected into 293A cells. After two days, the media was changed, harvested 24 h later, concentrated, and purified exactly as described above.
(§6) In vitro PM20D1-catalyzed synthesis of N-acyl amino acids was measured by incubating purified PM20D1 protein with oleate (1.5 mM) and phenylalanine (0.1 mM) in PBS (to 100 μl final volume) at 37° C. for 1.5 hrs. In vitro PM20D1-catalyzed N-acyl amino acid hydrolysis was measured by incubating purified PM20D1 protein with the indicated N-acyl amino acid (0.1 mM) in PBS (to 100 μl final volume) at 37° C. for 1.5 hrs. Reactions were terminated by placing the vials at −80° C. and the products generated in vitro were analyzed by mass spectroscopy (MS).
(§7) Briefly, frozen serum (30 μl) for polar metabolomic analyses were extracted in 160 μl of 1:1 acetonitrile/methanol with inclusion of internal standard D3, ^15N-serine (1 nmol). […]

[8] = target: T1, human PM20D1; test: In vitro N-acyl amino acid hydrolase activity of human PM20D1; assay type: biochemical; conditions: purified human PM20D1-flag, substrate 100 μM
Description: as §5, §6, §7

CCCCC/C=C\C/C=C\C/C=C\C/C=C\CCCC(=O)N[C@@H](Cc1ccccc1)C(=O)O [C20:4-Phe, N-arachidonoyl phenylalanine]
uncoupled respiration in cells [1]: increased uncoupled respiration | maximal OCR versus the oligomycin-treated basal respiration [2]: 214% | maximal OCR versus DMSO at the same time point [3]: 214% | maximal OCR versus oligomycin-treated basal respiration [3]: 243% | maximal OCR versus the oligomycin-treated basal respiration [4]: 221%

C#CCCCCCCCCCCCCCCCC(=O)N[C@@H](CC1(C)N=N1)C(=O)O [photo-probe, (S)-3-(3-methyl-3H-diazirin-3-yl)-2-(octadec-17-ynamido)propanoic acid]
uncoupling activity (uncoupled respiration) [5]: competent inducer of uncoupled respiration | crosslinking assessed by in-gel TAMRA fluorescence [6]: robust, UV-dependent crosslinking

B1: Human PM20D1: purified, recombinant human PM20D1-flag from transiently transfected 293A cells (protein, UniProt Q6GTS8 26-502, looked up)
N-fatty-acyl-amino acid …: T1 sequence (Q6GTS8 26-502)
modifications: FLAG tag
notes: purified, recombinant human PM20D1-flag from transiently transfected 293A cells
N-acyl amino acid synthase activity [7]: possessed N-acyl amino acid synthase and hydrolase activities | N-acyl amino acid hydrolase activity [8]: possessed N-acyl amino acid synthase and hydrolase activities
